Where two headings read alike, the source gives them in different places.
Tests used:
FAK = target: T1, FAK (Homo sapiens, UniProt Q05397); experiment: Western blot degradation of FAK; format: cell-based; settings: A549 Cell; 24 hours
T1 construct: expression of target proteins in cells; endogenous in cells
Protocol: (§1) Conventional Western blot assay was performed to evaluate the effects of the compounds of the present disclosure on the expression of target proteins in cells.
(§2) (1) Cell Seeding and Protein Harvesting: The selected cells were processed according to the cell seeding procedure and protein harvesting procedure in Table II-2.
(§3) (2) To the collected supernatant, 5×SDS sample loading buffer was added, followed by denaturation at 95 °C for 5 minutes. The denatured samples were then separated by SDS-PAGE electrophoresis on a polyacrylamide gel. Proteins were transferred to a nitrocellulose membrane (0.45 μm NC membrane), blocked with blocking buffer at room temperature for 1 hour, and subjected to antibody incubation and development procedures according to the antibody manufacturer's instructions (Cell Signaling Technology).
(§4) Half-Maximal Degradation Concentration value (the drug concentration required for degrading proteins by 50%, abbreviated as DC50) reads method: comparing the grayscale values of Western blot bands from drug-treated samples with those from blank DMSO-treated controls, and identifying the drug concentration range at which the grayscale value is half that of the DMSO-treated control bands.
(§5) DC50 values can be calculated using ImageJ software to measure grayscale values of Western blot bands from drug-treated samples. The concentration-response curve is fitted to estimate the drug concentration corresponding to half the grayscale value.
(§6) Target protein remaining (%) refers to the percentage of target protein remaining in cells after treatment with protein degrader compounds.
(§7) Calculation method for target protein remaining (%): Use ImageJ software to measure grayscale values of Western blot bands from drug (protein degrader)-treated samples. The grayscale value of drug-treated bands is divided by that of internal control protein bands, and the resulting quotient is normalized to obtain the relative percentage of remaining target protein after protein degrader treatment.
(§8) Target protein degradation rate (%)=1−target protein remaining (%).

[1] = system: Human myeloid monocytic leukemia cell line (MV-4-11); experiment: Inhibition of MV-4-11 cell proliferation (CellTiter luminescent viability); format: cell-based; settings: Homo sapiens, MV4-11, 96 hours; for inhibition at 0.01 µM: MV-4-11, 10 nM, read-out: Inhibition Rate at 10 nM (%); for inhibition at 0.5 µM: MV-4-11, 500 nM, read-out: Inhibition Rate at 500 nM (%)
Procedure, shortened: (§9)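 IC50 is fitted from luminescent viability (CellTiter-Meiluncell) curves. Nine-point, 5-fold dilution series (top stock 2000 μM) are added at 0.5 μL per 100 μL medium to cells plated the day before, with growth at 37 °C and 5% CO2.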

[2] = system: Human breast cancer cell line (MDA-MB-231); experiment: Inhibition of MDA-MB-231 cell proliferation (CellTiter luminescent viability); format: cell-based; settings: Table IG3, FAK inhibitor-based, 96 hours
Protocol: The tumor cells used herein were cultured in a cell culture medium listed in table 3 at 37 °C in an incubator with 5% CO2. Prior to experimentation, all cell lines used were correctly identified by STR profiling, and tested negative for mycoplasma contamination using a mycoplasma detection kit through routine screenings.
The IC50 values of the compounds of the present disclosure (including the compounds in Table 1, Table 2, and Examples 1-468) were determined using the CellTiter-Meiluncell Luminescent Cell Viability Assay Kit from Dalian Meilun Biotech Co., Ltd. The detailed procedure is as follows: Tumor cells were seeded in 96-well cell culture plates at the densities specified in Table 4. On the following day, the test compounds of the present disclosure were subjected to serial dilution. The dilution can be performed according to one of the following two methods: • (1) The first dilution method: The test compounds of the present disclosure (including the compounds in Table 1, Table 2, and Examples 1-468) were subjected to 5-fold serial dilutions starting from a highest concentration of 2000 μM, resulting in a total of 9 concentrations from high to low (2000, 400, 80, 16, 3.2, 0.64, 0.128, 0.0256, 0.00512 μM). Subsequently, 0.5 μL of the test compound dilution was transferred into the 96-well plate containing the cells, with each well containing 100 μL of cell culture medium. […] Into the 96-well plate, the diluted test compounds and corresponding detection reagents were added, resulting in final test compound concentrations of 500 nM and 10 nM, respectively. The experimental procedure is described below using the diluted 2 μM test compound as an example.
0.5 μL of the aforementioned diluted compound of the present disclosure (including the compounds in Table 1, Table 2, and Examples 1-468) was added to the seeded cells in 100 μL of medium, yielding a final test compound concentration of 10 nM. After the cells were treated with the compounds of the present disclosure for a specified period, the cell viability assay reagent was added to the culture medium according to the kit's instructions to determine cell viability. […] All controls were treated using the same procedure as the compounds of the present disclosure. The growth inhibition curves for the compounds of the present disclosure were plotted using Prism GraphPad software, and the IC50 values were calculated therefrom.

[3] = target: T2, human Cereblon WT GST-tagged protein (CRBN) (Homo sapiens, UniProt Q96SW2); experiment: CRBN binding by HTRF (Cereblon binding kit)
T2 construct: purchased CISBIO 64BDCRBNPEH
Procedure, shortened: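 GST-tagged human Cereblon WT was incubated 3 h at room temperature with compound, thalidomide-Re tracer and Eu anti-GST antibody. Final compound concentrations were 10 to 0.00064 µM (7 points) or 2 and 0.5 µM. Inhibition rate was calculated from HTRF 665/620 nm ratios versus solvent and blank controls.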

[4] = system: Human acute lymphocytic leukemia T lymphocytes cell line (CCRF-CEM); experiment: Inhibition of CCRF-CEM cell proliferation (CellTiter luminescent viability); format: cell-based; settings: Homo sapiens, 96 h, Table IL3, BCR-ABL inhibitor-based
[5] = system: Human Multiple myeloma cell line (MM.1S); experiment: Inhibition of MM.1S cell proliferation (CellTiter luminescent viability); format: cell-based; settings: Homo sapiens, MM1.S, 96 hours; for inhibition at 0.01 µM: 10 nM, read-out: Inhibition Rate at 10 nM (%); for inhibition at 0.5 µM: 500 nM, read-out: Inhibition Rate at 500 nM (%)
Procedure, shortened: as §9

C-ABL = target: T3, C-ABL (Homo sapiens, UniProt P00519); experiment: Western blot degradation of C-ABL; format: cell-based; settings: K562 Cell; 24 hours
T3 construct: K562 also holds p210 BCR-ABL (BCR P11274 fused to ABL1)
Protocol: as §1, §2, §3, §4, §5, §6, §7, §8

[6] = Table IL1, BCR-ABL inhibitor-based
[7] = Table IL2, BCR-ABL inhibitor-based

T1 sequence (Q05397 whole entry): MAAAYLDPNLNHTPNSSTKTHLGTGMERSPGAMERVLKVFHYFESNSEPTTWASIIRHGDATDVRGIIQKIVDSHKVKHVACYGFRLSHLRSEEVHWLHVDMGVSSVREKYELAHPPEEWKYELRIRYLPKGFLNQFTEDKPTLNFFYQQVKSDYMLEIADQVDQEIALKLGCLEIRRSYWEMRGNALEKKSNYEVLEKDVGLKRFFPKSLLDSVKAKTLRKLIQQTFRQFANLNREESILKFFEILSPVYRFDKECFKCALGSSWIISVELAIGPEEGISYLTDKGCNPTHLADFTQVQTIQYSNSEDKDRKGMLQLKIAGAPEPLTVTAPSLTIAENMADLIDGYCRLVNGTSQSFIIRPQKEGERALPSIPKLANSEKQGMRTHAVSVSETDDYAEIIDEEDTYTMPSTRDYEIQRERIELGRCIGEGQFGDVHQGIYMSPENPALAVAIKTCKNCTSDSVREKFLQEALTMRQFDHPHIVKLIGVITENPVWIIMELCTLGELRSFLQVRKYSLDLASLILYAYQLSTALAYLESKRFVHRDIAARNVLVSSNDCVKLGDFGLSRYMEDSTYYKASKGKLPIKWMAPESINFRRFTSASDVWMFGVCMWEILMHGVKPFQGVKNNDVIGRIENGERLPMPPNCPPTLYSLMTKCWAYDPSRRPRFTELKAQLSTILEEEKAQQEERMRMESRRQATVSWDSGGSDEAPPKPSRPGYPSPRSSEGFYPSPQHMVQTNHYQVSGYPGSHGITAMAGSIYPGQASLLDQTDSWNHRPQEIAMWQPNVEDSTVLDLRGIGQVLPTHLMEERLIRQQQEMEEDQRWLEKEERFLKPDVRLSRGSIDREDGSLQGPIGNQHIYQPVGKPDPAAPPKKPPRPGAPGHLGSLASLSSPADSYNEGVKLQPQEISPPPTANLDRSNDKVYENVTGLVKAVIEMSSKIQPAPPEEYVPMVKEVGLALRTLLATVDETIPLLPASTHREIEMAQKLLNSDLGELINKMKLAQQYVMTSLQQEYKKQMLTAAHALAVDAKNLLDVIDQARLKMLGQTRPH
T2 sequence (Q96SW2 whole entry): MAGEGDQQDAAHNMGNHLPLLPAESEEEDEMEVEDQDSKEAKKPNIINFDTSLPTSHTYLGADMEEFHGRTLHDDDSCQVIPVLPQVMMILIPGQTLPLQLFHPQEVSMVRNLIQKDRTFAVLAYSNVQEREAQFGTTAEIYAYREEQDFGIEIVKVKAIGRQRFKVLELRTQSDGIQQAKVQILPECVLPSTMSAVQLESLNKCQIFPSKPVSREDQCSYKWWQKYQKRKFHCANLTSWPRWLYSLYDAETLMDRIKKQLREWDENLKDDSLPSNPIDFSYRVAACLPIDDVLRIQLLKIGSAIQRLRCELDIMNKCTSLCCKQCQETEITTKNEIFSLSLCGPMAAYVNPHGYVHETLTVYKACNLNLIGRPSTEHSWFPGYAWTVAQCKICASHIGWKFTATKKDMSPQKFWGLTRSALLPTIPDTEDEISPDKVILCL
T3 sequence (P00519 whole entry, the tested form may be a part): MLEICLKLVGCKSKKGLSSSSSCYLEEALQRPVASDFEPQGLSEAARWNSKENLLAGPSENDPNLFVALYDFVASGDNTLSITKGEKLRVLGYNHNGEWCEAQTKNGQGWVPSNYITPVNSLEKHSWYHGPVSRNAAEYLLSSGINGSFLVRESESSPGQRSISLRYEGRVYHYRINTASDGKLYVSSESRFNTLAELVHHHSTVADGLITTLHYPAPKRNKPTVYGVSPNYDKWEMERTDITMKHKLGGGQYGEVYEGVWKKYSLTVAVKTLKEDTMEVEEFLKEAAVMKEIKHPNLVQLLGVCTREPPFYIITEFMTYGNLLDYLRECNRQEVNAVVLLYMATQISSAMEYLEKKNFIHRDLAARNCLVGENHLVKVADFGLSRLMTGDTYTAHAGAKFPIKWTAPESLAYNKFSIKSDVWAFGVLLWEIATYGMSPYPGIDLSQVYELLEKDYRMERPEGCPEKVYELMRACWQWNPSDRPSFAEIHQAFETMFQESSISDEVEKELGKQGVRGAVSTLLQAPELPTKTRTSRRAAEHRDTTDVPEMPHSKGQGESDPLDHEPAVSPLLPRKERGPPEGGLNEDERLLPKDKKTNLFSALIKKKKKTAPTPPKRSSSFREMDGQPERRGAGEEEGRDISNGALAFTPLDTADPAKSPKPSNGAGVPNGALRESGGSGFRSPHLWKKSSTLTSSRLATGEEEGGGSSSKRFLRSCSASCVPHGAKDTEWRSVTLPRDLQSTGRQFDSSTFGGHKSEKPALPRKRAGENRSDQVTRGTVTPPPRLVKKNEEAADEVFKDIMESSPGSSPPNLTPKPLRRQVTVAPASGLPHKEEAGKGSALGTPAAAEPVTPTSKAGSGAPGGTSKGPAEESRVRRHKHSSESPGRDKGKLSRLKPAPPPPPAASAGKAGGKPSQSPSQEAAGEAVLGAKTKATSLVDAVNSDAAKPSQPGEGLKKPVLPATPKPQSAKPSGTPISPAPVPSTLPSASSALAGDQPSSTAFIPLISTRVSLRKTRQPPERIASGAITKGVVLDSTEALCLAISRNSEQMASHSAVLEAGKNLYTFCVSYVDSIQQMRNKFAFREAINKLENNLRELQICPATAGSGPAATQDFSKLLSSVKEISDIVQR
T3 sequence (Q96SW2 whole entry partner, the tested form may be a part): as the sequence (Q96SW2 whole entry) above

CS(=O)(=O)c1cccc(CNc2nc(Nc3ccc(N4CCN(CC5CCN(c6ccc7c(c6)C(=O)N(N6CCC(=O)NC6=O)C7=O)CC5)CC4)cc3)ncc2C(F)(F)F)c1 [GT-07470, 2-(2,4-dioxotetrahydropyrimidin-1(2H)-yl)-5-(4-((4-(4-((4-((3-(methylsulfonyl)benzyl)amino)-5-(trifluoromethyl)pyrimidin-2-yl)amino)phenyl)piperazin-1-yl)methyl)piperidin-1-yl)isoindoline-1,3-dione]
Degradation of substrate protein FAK (substrate protein remaining %) (FAK): A (0%≤substrate protein remaining %≤80%)

CN(c1nccnc1CNc1nc(Nc2ccc(N3CCN(CC4CCN(c5cccc6c5C(=O)N(N5CCC(=O)NC5=O)C6=O)CC4)CC3)cc2)ncc1C(F)(F)F)S(C)(=O)=O [GT-07469, N-(3-(((2-((4-(4-((1-(2-(2,4-dioxotetrahydropyrimidin-1(2H)-yl)-1,3-dioxoisoindolin-4-yl)piperidin-4-yl)methyl)piperazin-1-yl)phenyl)amino)-5-(trifluoromethyl)pyrimidin-4-yl)amino)methyl)pyrazin-2-yl)-N-methylmethanesulfonamide]
inhibition at 0.01 µM ([1]; Table IG2, FAK inhibitor-based): 0 to 5% | inhibition at 0.5 µM ([1]; Table IG2, FAK inhibitor-based): 80 to 100% | inhibition at 0.01 µM ([2]; MDA-MB-231, 10 nM, read-out: Inhibition Rate at 10 nM (%)): 30 to 40% | inhibition at 0.5 µM ([2]; MDA-MB-231, 500 nM, read-out: Inhibition Rate at 500 nM (%)): 50 to 60% | Degradation of substrate protein FAK (substrate protein remaining %) (FAK): A (0%≤substrate protein remaining %≤80%)

CS(=O)(=O)c1cccc(CNc2nc(Nc3ccc(N4CCN(Cc5ccc6c(c5)CN(N5CCC(=O)NC5=O)C6=O)CC4)cc3)ncc2C(F)(F)F)c1 [GT-07514, 1-(5-((4-(4-((4-((3-(methylsulfonyl)benzyl)amino)-5-(trifluoromethyl)pyrimidin-2-yl)amino)phenyl)piperazin-1-yl)methyl)-1-oxoisoindolin-2-yl)dihydropyrimidine-2,4 (1H,3H)-dione]
inhibition at 0.01 µM ([1]; Table IG2, FAK inhibitor-based): 30 to 40% | inhibition at 0.5 µM ([1]; Table IG2, FAK inhibitor-based): 80 to 100% | Inhibition Rate at 0.5 μM (%) ([3]; 0.5 μM): a3 (30% < a3 ≤ 40%) | Inhibition Rate at 2 μM (%) ([3]; 2 μM): a5 (53% < a5 ≤ 60%) | Degradation of substrate protein FAK (substrate protein remaining %) (FAK): A (0%≤substrate protein remaining %≤80%)

CNC(=O)c1ccccc1Nc1cc(Nc2cc(C)c(C3CCN(CC4CCN(c5ccc6c(c5)C(=O)N(N5CCC(=O)NC5=O)C6=O)CC4)CC3)cc2OC(C)C)ncc1C(F)(F)F [GT-07665, 2-((2-((4-(1-((1-(2-(2,4-dioxotetrahydropyrimidin-1(2H)-yl)-1,3-dioxoisoindolin-5-yl)piperidin-4-yl)methyl)piperidin-4-yl)-2-isopropoxy-5-methylphenyl)amino)-5-(trifluoromethyl)pyridin-4-yl)amino)-N-methylbenzamide]
Degradation of substrate protein FAK (substrate protein remaining %) (FAK): A (0%≤substrate protein remaining %≤80%)

CS(=O)(=O)c1cccc(CNc2nc(Nc3ccc(N4CCN(CC5CCN(c6cccc7c6C(=O)N(N6CCC(=O)NC6=O)C7=O)CC5)CC4)cc3)ncc2C(F)(F)F)c1 [GT-07471, 2-(2,4-dioxotetrahydropyrimidin-1(2H)-yl)-4-(4-((4-(4-((4-((3-(methylsulfonyl)benzyl)amino)-5-(trifluoromethyl)pyrimidin-2-yl)amino)phenyl)piperazin-1-yl)methyl)piperidin-1-yl)isoindoline-1,3-dione]
Degradation of substrate protein FAK (substrate protein remaining %) (FAK): A (0%≤substrate protein remaining %≤80%)

Cc1ccc(C(=O)Nc2ccc(CN3CCN(Cc4ccc5c(c4)CN(N4CCC(=O)NC4=O)C5=O)CC3)c(C(F)(F)F)c2)cc1C#Cc1cnc2cccnn12 [GT-08216, N-(4-((4-((2-(2,4-dioxotetrahydropyrimidin-1(2H)-yl)-1-oxoisoindolin-5-yl)methyl)piperazin-1-yl)methyl)-3-(trifluoromethyl)phenyl)-3-(imidazo[1,2-b]pyridazin-3-ylethynyl)-4-methylbenzamide]
inhibition at 0.01 µM ([4]; 10 nM, read-out: Inhibition Rate at 10 nM (%)): 20 to 30% | inhibition at 0.5 µM ([4]; 500 nM, read-out: Inhibition Rate at 500 nM (%)): 80 to 100% | inhibition at 0.01 µM [5, 6]: 20 to 30% | inhibition at 0.5 µM [5, 6]: 80 to 100% | inhibition at 0.01 µM [1, 7]: 80 to 100% | inhibition at 0.5 µM [1, 7]: 80 to 100% | Degradation of substrate protein C-ABL; BCR-ABL (substrate protein remaining %) (C-ABL): A (0%≤substrate protein remaining %≤80%)

CNC(=O)c1ccccc1Nc1cc(Nc2cc(C)c(C3CCN(CC4CCN(c5cccc6c5C(=O)N(N5CCC(=O)NC5=O)C6=O)CC4)CC3)cc2OC(C)C)ncc1C(F)(F)F [GT-07666, 2-((2-((4-(1-((1-(2-(2,4-dioxotetrahydropyrimidin-1(2H)-yl)-1,3-dioxoisoindolin-4-yl)piperidin-4-yl)methyl)piperidin-4-yl)-2-isopropoxy-5-methylphenyl)amino)-5-(trifluoromethyl)pyridin-4-yl)amino)-N-methylbenzamide]
Degradation of substrate protein FAK (substrate protein remaining %) (FAK): A (0%≤substrate protein remaining %≤80%)

CNC(=O)c1ccccc1Nc1cc(Nc2ccc(N3CCN(Cc4ccc5c(c4)C(=O)N(N4CCC(=O)NC4=O)C5=O)CC3)cc2OC)ncc1C(F)(F)F [GT-07661, 2-((2-((4-(4-((2-(2,4-dioxotetrahydropyrimidin-1(2H)-yl)-1,3-dioxoisoindolin-5-yl)methyl)piperazin-1-yl)-2-methoxyphenyl)amino)-5-(trifluoromethyl)pyridin-4-yl)amino)-N-methylbenzamide]
inhibition at 0.01 µM ([5]; Table IG1, FAK inhibitor-based): 30 to 40% | inhibition at 0.5 µM ([5]; Table IG1, FAK inhibitor-based): 40 to 60% | Degradation of substrate protein FAK (substrate protein remaining %) (FAK): A (0%≤substrate protein remaining %≤80%)
